{
  "source": "patent US20050271657A1",
  "about": "“Intermittent treatment regime for organ failure” (Australian Stem Cell Centre Ltd., priority 2004, published 2005)",
  "origin": "cited, not measured here",
  "key": {"[1]": {"test_system": "A II production from angiotensin I (A I)"}, "[2]": {"conditions": "renal transplant patients"}},
  "data": [
    {"smiles": "CCOC(=O)[C@H](CCc1ccccc1)N[C@@H](C)C(=O)N1CCC[C@H]1C(=O)O", "note": "[Enalapril, enalapril]", "values": [
      {"measurement": "blockage of A II production from angiotensin I at specific glomerular sites", "setting": "[1]", "value": "blockage"},
      {"measurement": "anemia", "setting": "[2]", "value": "reversible anemia"}
    ]}
  ]
}
